In article PMC10145437, “Pd(II) and Pt(II) Trinuclear Chelates with Spermidine: Selective Anticancer Activity towards TNBC-Sensitive and -Resistant to Cisplatin” (Pharmaceutics, 2023):
Where two headings read alike, the source gives them in different places.

How the values were obtained:
MDA-MB-231 cells [1] = assay: Cell proliferation evaluation (label-free image cell counting); assay type: cell-based, human; settings: for concentration of maximum suppression of cell proliferation: MDA-MB-231, 48 h
Protocol: (§1) The human TNBC MDA-MB-231 cell line (ATCC HTB-26) and the non-cancerous breast cell line MCF-12A (ATCC CRL-10782) were purchased from ATCC (Manassas, VA, USA). DMEM-HG cell growth medium supplemented with 10% (v/v) FBS was used to culture breast cancer cells. To establish a cisplatin-resistant cell strain, MDA-MB-231 cells were continuously treated with increasing concentrations of cisplatin (up to 2 µM) during a period of 6 months. When a consistent cell growth rate in the presence of cisplatin was achieved, these cells were named MDA-MB-231/R and stocked to assure the consistency of the phenotype for future use and experiments. All posterior experiments were performed within 10 passages to maintain the resistance while routinely growing the MDA-MB-231/R cell line in a cell culture medium without the addition of cisplatin. MCF-12A cells were cultured in DMEM/F12 medium supplemented with 100 ng/mL cholera toxin, 0.01 mg/mL bovine insulin, 20 ng/mL hEGF, 500 ng/mL hydrocortisone and 5% (v/v) horse serum. Cells were grown in monolayers in a sterile environment at 37 °C with a 5% CO2 humidified atmosphere. Under these conditions, the population doubling time was 25.5 ± 0.9 h and 30.6 ± 1.1 h for MDA-MB-231 and MDA-MB-231/R cells, respectively, and 20.6 ± 3.1 h for MCF-12A cells. The cell cultures were routinely screened for mycoplasma contamination, yielding negative results.
(§2) Cells were seeded in 96-well microplates at the cell density 1.5 × 10^4 cells/cm^2 (final volume 200 µL/well) and left 24 h to attach. Afterwards, the growth medium was replaced with the growth medium containing cisplatin (0.1–200 µM), Pd3Spd2 (0.3–200 µM), Pt3Spd2 (0.3–100 µM) and Pd2Spm (0.3–200 µM).
(§3) Cell proliferation was monitored with the direct image acquisition of cells on microplates at 0, 24, 48 and 72 h post-addition of the tested compounds using a LionheartFX automated microscope (BioTek, Winooski, VT, USA). Label-free kinetic 4× images were acquired and processed using Gen 5 Image Analysis software (BioTek, Winooski, VT, USA). Individual cells per image were identified and counted, and normalized cell growth (%) was calculated using the following formula: Ct=Number of Treated Cellst−Number of Treated Cells0/Number of Untreated Cellst−Number of Untreated Cells0×100 where C(t) is the percent of net cell growth over time, Number of Treated Cells(t) is the count of cells treated with drug at each time point, Number of Treated Cells(0) is the count cells treated with drug at time 0 h, Number of Untreated Cells(t) is the count of untreated (control) cells at each time point and Number of Untreated Cells(0) is the count of untreated (control) cells at time 0 h.
(§4) Data are expressed as the mean ± standard error of the mean (SEM). GraphPad Prism 7 Software (San Diego, CA, USA) was used, and the statistical analysis was performed using the two-tailed Student’s t-test. The half-maximal inhibitory concentration values (IC50) were calculated by interpolation from the nonlinear regression curves obtained from cell proliferation/cytotoxicity data using “log(inhibitor) versus the normalized response–variable slope equation”. A p-value lower than 0.05 was considered statistically significant.

[2] = tested on: MCF-12A cells (non-cancerous breast cells); assay: as above; assay type: cell-based, human; settings: for IC50: suppression of cell proliferation, n = 4, read-out: IC50 against MCF-12A cells; for Selectivity Index for MDA-MB-231/R: IC50 MCF-12A divided by IC50 MDA-MB-231/R
Protocol: as §1, §2, §3, §4

[3] = tested on: MDA-MB-231/R cells (cisplatin-resistant); assay: as above; assay type: cell-based, human; settings: for concentration of maximum suppression of cell proliferation: MDA-MB-231/R; for IC50: suppression of cell proliferation, n = 4; for Resistance Index: IC50 MDA-MB-231/R divided by IC50 MDA-MB-231, cell proliferation assay
Protocol: as §1, §2, §3, §4

MDA-MB-231 cells [4] = assay: MTT assay (cell viability); assay type: cell-based, human; settings: n = 4
Protocol: (§5) The cells were harvested upon the addition of trypsin/EDTA solution, seeded in 96-well plates (1.5 × 10^4 cells/cm^2) and incubated at 37 °C. After allowing the cells to adhere for 24 h, the growth medium was replaced with the growth medium containing Pd3Spd2 (1–200 µM) or Pt3Spd2 (1–200 µM).
(§6) After each incubation period (24, 48 and 72 h), the cell viability was evaluated by the MTT [33] method. Briefly, a MTT solution (0.5 mg/mL in PBS) was added to each well after carefully removing the medium and allowed to incubate for 3 h at 37 °C; after which, the MTT was aspirated and, in order to dissolve the formazan crystals, 100 µL of DMSO were added. The optical density was measured at 570 nm.
as §4

[5] = tested on: MDA-MB-231/R cells (cisplatin-resistant); assay: MTT assay (cell viability); assay type: cell-based, human; settings: for IC50: cell viability, MTT assay, n = 4
Protocol: as §5, §6, §4

leukemic P388 cells = tested on: leukemic P388 cells; parameters: method as in doi:10.1016/j.ccr.2016.02.001; settings: cited from earlier work
sarcoma = tested on: sarcoma; parameters: method as in earlier work; settings: cited from earlier work
[6] = suppression of cell proliferation, 48 h incubation, n = 4, read-out: MDA-MB-231 IC50
[7] = suppression of cell proliferation, 24 h incubation, n = 4, read-out: MDA-MB-231 IC50
[8] = suppression of cell proliferation, 72 h incubation, n = 4, read-out: MDA-MB-231 IC50
[9] = IC50 MCF-12A divided by IC50 MDA-MB-231, 48 h

Row | Compound | concentration of maximum suppression of cell proliferation (MDA-MB-231 cells [1]) [µM] | IC50 (MDA-MB-231 cells [1]; [6]) [µM] | IC50 ([2]; 48 h incubation) [µM] | concentration of maximum suppression of cell proliferation ([3]; 48 h) [µM] | IC50 ([3]; 48 h incubation) [µM] | IC50 (MDA-MB-231 cells [1]; [7]) [µM] | IC50 (MDA-MB-231 cells [1]; [8]) [µM] | Selectivity Index for MDA-MB-231 [2, 9] | IC50 ([3]; 24 h incubation) [µM] | IC50 ([3]; 72 h incubation) [µM] | IC50 (MDA-MB-231 cells [4]; 24 h incubation) [µM] | IC50 (MDA-MB-231 cells [4]; 48 h incubation) [µM] | IC50 (MDA-MB-231 cells [4]; 72 h incubation) [µM] | IC50 ([5]; 24 h incubation) [µM] | IC50 ([5]; 48 h incubation) [µM] | IC50 ([5]; 72 h incubation) [µM] | other results
1 | NCCCNCCCCNCCCN.[Cl][Pd][Cl].[Cl][Pd][Cl] [Pd2Spm, reference compound] | 30 | 7.9 | ~90 | 30 | 11.6 | – | – | – | – | – | – | – | – | – | – | – | concentrations required to suppress/modify MCF-12A cell proliferation ([2]; MCF-12A healthy breast cells, 48 h): above 40 μM; suppression of MCF-12A cell proliferation ([2]; MCF-12A, for 100 μM, 48 h): up to 60%
2 | NCCCCNCCCN.NCCCCNCCCN.[Cl][Pd][Cl].[Cl][Pd][Cl].[Cl][Pd][Cl] [Pd3Spd2] | 30 | 8.44 | 53 | 30 | 10.6 | 8.35 | 7.92 | 6.28 | 13.3 | 10.8 | 8.99 | 4.65 | 6.12 | 9.24 | 10.6 | 11.4 | concentrations that suppressed cell proliferation (MDA-MB-231 cells [1]; MDA-MB-231, 24-72 h, concentration-dependent): above 1 μM; Selectivity Index for MDA-MB-231 ([2]; IC50 MCF-12A divided by IC50 MDA-MB-231, 24 h): 7.94; Selectivity Index for MDA-MB-231 ([2]; IC50 MCF-12A divided by IC50 MDA-MB-231, 72 h): 6.28; Selectivity Index for MDA-MB-231/R ([2]; 48 h): 4.99; Selectivity Index for MDA-MB-231/R ([2]; 72 h): 4.59; selectivity index for MDA-MB-231 cells (sensitive TNBC), over incubation times ([2]; MCF-12A versus MDA-MB-231, depending on the time of incubation (24-72 h)): > 6.28; selectivity index for MDA-MB-231/R cells (resistant TNBC), over incubation times ([2]; MCF-12A versus MDA-MB-231/R, depending on the time of incubation (24-72 h)): > 4.59; IC50 ([2]; 24 h incubation): 66.3 µM; IC50 ([2]; 72 h incubation): 49.7 µM; Resistance Index ([3]; 24 h): 1.6; Resistance Index ([3]; 48 h): 1.3; Resistance Index ([3]; 72 h): 1.4; resistance index (abstract summary) ([5]; MDA-MB-231/R versus MDA-MB-231, over assays and incubation times): lower than 2.3
3 | O=[N+]([O-])[O-].O=[N+]([O-])[O-].[Pd+2].c1ccc(-c2ccccn2)nc1 [Pd(bpy)(ONO2)2] | – | – | – | – | – | – | – | – | – | – | – | – | – | – | – | – | activity towards leukemic P388 cells (leukemic P388 cells): inactive; antitumor activity against sarcoma (sarcoma): effective antitumor agent
4 | NCCCCNCCCN.NCCCCNCCCN.[Cl][Pt][Cl].[Cl][Pt][Cl].[Cl][Pt][Cl] [Pt3Spd2] | – | > 100 | – | – | > 100 | > 100 | > 100 | – | > 100 | > 100 | > 100 | > 100 | > 100 | > 100 | 67.9 | > 100 | reduction of cell proliferation (MDA-MB-231 cells [1]; MDA-MB-231, only with concentrations above 100 μM): up to 25%; IC50 (MDA-MB-231 cells [1]; cell proliferation, depending on the incubation period (24, 48, 72 h), read-out: IC50 in MDA-MB-231 cells, over all incubation periods): > 100 µM
5 | N.N.[Cl][Pt][Cl] [cisplatin, cis-dichlorodiammine platinum(II)] | 30 | 1 | 1 | 200 | 32.4 | – | – | 1 | – | – | – | – | – | – | – | – | –
